Assay results taken from patent US11566057B2, “Long-acting co-agonists of the glucagon and GLP-1 receptors” (Merck Sharp & Dohme Corp., priority 2017, dated 2023).
Like-named read-outs stand apart in the source and are kept apart here. Numbered stars: 1 amine (or outer) side, 2 acyl side, 3 side chain; on linkers, the order of the positions; unused ones are H or OH. Square brackets hold non-standard residues; d marks the D form. Side chains are listed from the residue outwards. Peptide text beside a SMILES is read from it. * marks the point of attachment. Phe(4-CH2NH2) = NCc1ccc(C[C@H](N)C(=O)O)cc1; C18 diacid = O=C(O)CCCCCCCCCCCCCCCCC(=O)*; γGlu = O=C(O)[C@H](CCC(=O)[*:2])N[*:1]; Met(O2) = CS(=O)(=O)CC[C@H](N)C(=O)O; αMeD = C[C@](N)(CC(=O)O)C(=O)O; AEEA = NCCOCCOCC(=O)O; Aib = CC(C)(N)C(=O)O

Key:
human GCGR = biological target: T1, human GCGR (Homo sapiens, UniProt P47871); test: cAMP activity assay at the Glucagon receptor (GCGR); type: cell-based; settings: for hGCGR/hGLP1R (hTone): ratio of GCGR EC50 to GLP1R EC50
T1 construct: expressed in transfected cells; growth medium holds Blasticidin and Hygromycin
How it was run: (§1)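 Peptides serially diluted from DMSO (10 points) and added to frozen-stock cells bearing human GLP1R (10,000 cells/well) or GCGR (30,000 cells/well), 1 h at RT, dark. EC50 by four-parameter logistic fit of HitHunter cAMPXS luminescence, read following overnight RT incubation.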

human GLP1R = biological target: T2, human GLP1R (Homo sapiens, UniProt P43220); test: cAMP activity assay at the GLP-1 receptor (GLP1R); type: cell-based
T2 construct: expressed in transfected cells; growth medium holds Blasticidin and Hygromycin
How it was run: as §1

[1] = cells expressing human GCGR, cAMP production, buffer with or without 20% human serum (not stated which), read-out: GCGR EC50 human
[2] = summary statement: EC50 at each of the glucagon and GLP-1 receptors, read-out: EC50 at the glucagon receptor
[3] = summary statement: EC50 at each of the glucagon and GLP-1 receptors, read-out: EC50 at the GLP-1 receptor
[4] = cells expressing human GLP1R, cAMP production, buffer with or without 20% human serum (not stated which), read-out: GLP1R EC50 human

T1 sequence (P47871 26-477): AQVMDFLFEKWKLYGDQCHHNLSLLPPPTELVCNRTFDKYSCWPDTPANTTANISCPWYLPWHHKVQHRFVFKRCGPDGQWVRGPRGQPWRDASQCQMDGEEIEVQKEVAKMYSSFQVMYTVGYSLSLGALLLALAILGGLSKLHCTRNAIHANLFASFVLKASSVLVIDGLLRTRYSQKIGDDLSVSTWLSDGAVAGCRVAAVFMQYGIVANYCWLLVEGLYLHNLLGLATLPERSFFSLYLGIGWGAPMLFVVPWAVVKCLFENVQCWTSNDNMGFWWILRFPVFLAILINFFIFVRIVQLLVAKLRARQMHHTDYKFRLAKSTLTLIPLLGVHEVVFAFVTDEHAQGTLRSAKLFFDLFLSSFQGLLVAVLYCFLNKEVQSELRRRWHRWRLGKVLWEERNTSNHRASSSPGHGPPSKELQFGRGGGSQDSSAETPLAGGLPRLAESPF
T2 sequence (P43220 24-463): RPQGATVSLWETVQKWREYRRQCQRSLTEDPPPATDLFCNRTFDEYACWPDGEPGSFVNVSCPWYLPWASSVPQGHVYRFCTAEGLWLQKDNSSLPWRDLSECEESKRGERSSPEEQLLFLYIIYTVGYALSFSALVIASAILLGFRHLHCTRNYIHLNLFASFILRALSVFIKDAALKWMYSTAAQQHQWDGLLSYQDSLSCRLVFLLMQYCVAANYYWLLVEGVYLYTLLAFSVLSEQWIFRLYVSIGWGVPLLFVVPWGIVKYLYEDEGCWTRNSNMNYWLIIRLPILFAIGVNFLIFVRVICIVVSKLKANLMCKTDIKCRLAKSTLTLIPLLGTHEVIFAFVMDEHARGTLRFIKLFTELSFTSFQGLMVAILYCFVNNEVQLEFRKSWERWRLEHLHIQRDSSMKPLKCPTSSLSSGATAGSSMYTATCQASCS

SMILES	EC50 (human GCGR; [1]) [nM]	hGCGR/hGLP1R (hTone) (human GCGR)	EC50 (human GCGR; [2]) [nM]	EC50 (human GLP1R; [3]) [nM]	EC50 (human GLP1R; [4]) [nM]
CC(C)C[C@H](NC(=O)[C@H](Cc1ccc(O)cc1)NC(=O)[C@H](CCCCN)NC(=O)[C@H](CO)NC(=O)[C@H](Cc1ccc(O)cc1)NC(=O)[C@H](CC(=O)O)NC(=O)[C@H](CO)NC(=O)[C@@H](NC(=O)[C@H](Cc1ccccc1)NC(=O)[C@@H](NC(=O)CNC(=O)[C@H](CCC(N)=O)NC(=O)C(C)(C)NC(=O)[C@@H](N)Cc1c[nH]cn1)[C@@H](C)O)[C@@H](C)O)C(=O)N[C@@H](CC(=O)O)C(=O)N[C@@H](C)C(=O)N[C@@H](CCCNC(=N)N)C(=O)N[C@@H](C)C(=O)N[C@@H](C)C(=O)N[C@@H](Cc1ccc(CNC(=O)COCCOCCNC(=O)COCCOCCNC(=O)COCCOCCNC(=O)CC[C@H](NC(=O)CCCCCCCCCCCCCCCCC(=O)O)C(=O)O)cc1)C(=O)N[C@@H](CC(=O)O)C(=O)N[C@@H](Cc1ccccc1)C(=O)N[C@H](C(=O)N[C@@H](CCC(N)=O)C(=O)N[C@@H](Cc1c[nH]c2ccccc12)C(=O)N[C@@H](CC(C)C)C(=O)N[C@@H](CC(C)C)C(=O)N[C@@H](CC(=O)O)C(=O)N[C@H](C(N)=O)[C@@H](C)O)C(C)C [TP678] (H-H[Aib]QGTFTSDYSKYLDARAA[Phe(4-CH2NH2)]([AEEA-AEEA-AEEA-γGlu-C18 diacid])DFVQWLLDT-NH2; N-terminus assumed)	0.25	0.3	< 5	< 5	–
CC(C)C[C@H](NC(=O)[C@H](Cc1ccc(O)cc1)NC(=O)[C@H](CCCCN)NC(=O)[C@H](CO)NC(=O)[C@H](Cc1ccc(O)cc1)NC(=O)[C@H](CC(=O)O)NC(=O)[C@H](CO)NC(=O)[C@@H](NC(=O)[C@H](Cc1ccccc1)NC(=O)[C@@H](NC(=O)CNC(=O)[C@H](CCC(N)=O)NC(=O)C(C)(C)NC(=O)[C@@H](N)Cc1c[nH]cn1)[C@@H](C)O)[C@@H](C)O)C(=O)N[C@@H](CC(=O)O)C(=O)N[C@@H](C)C(=O)N[C@@H](CCCNC(=N)N)C(=O)N[C@@H](C)C(=O)N[C@@H](C)C(=O)N[C@@H](CCC(N)=O)C(=O)N[C@@H](Cc1ccc(CNC(=O)COCCOCCNC(=O)COCCOCCNC(=O)COCCOCCNC(=O)CC[C@H](NC(=O)CCCCCCCCCCCCCCCCC(=O)O)C(=O)O)cc1)C(=O)N[C@@H](Cc1ccccc1)C(=O)N[C@H](C(=O)N[C@@H](CCC(N)=O)C(=O)N[C@@H](Cc1c[nH]c2ccccc12)C(=O)N[C@@H](CC(C)C)C(=O)N[C@@H](CC(C)C)C(=O)N[C@@H](CC(=O)O)C(=O)N[C@H](C(N)=O)[C@@H](C)O)C(C)C [TP679] (H-H[Aib]QGTFTSDYSKYLDARAAQ[Phe(4-CH2NH2)]([AEEA-AEEA-AEEA-γGlu-C18 diacid])FVQWLLDT-NH2; N-terminus assumed)	–	0.7	< 5	< 5	0.18
CC(C)C[C@H](NC(=O)[C@H](Cc1ccc(O)cc1)NC(=O)[C@H](CCCCN)NC(=O)[C@H](CO)NC(=O)[C@H](Cc1ccc(O)cc1)NC(=O)[C@H](CC(=O)O)NC(=O)[C@H](CO)NC(=O)[C@@H](NC(=O)[C@H](Cc1ccccc1)NC(=O)[C@@H](NC(=O)CNC(=O)[C@H](CCC(N)=O)NC(=O)C(C)(C)NC(=O)[C@@H](N)Cc1c[nH]cn1)[C@@H](C)O)[C@@H](C)O)C(=O)N[C@@H](CC(=O)O)C(=O)N[C@@H](C)C(=O)N[C@@H](CCCNC(=N)N)C(=O)N[C@@H](C)C(=O)N[C@@H](C)C(=O)N[C@@H](CCC(N)=O)C(=O)N[C@@H](CC(=O)O)C(=O)N[C@@H](Cc1ccccc1)C(=O)N[C@H](C(=O)N[C@@H](CCCCNC(=O)COCCOCCNC(=O)COCCOCCNC(=O)COCCOCCNC(=O)CC[C@H](NC(=O)CCCCCCCCCCCCCCCCC(=O)O)C(=O)O)C(=O)N[C@@H](Cc1c[nH]c2ccccc12)C(=O)N[C@@H](CC(C)C)C(=O)N[C@@H](CCS(C)(=O)=O)C(=O)N[C@@H](CC(=O)O)C(=O)N[C@H](C(N)=O)[C@@H](C)O)C(C)C [TP680] (H-H[Aib]QGTFTSDYSKYLDARAAQDFVK([AEEA-AEEA-AEEA-γGlu-C18 diacid])WL[Met(O2)]DT-NH2; N-terminus assumed)	–	3.0	< 5	< 5	0.19
CC(C)C[C@H](NC(=O)[C@H](Cc1ccc(O)cc1)NC(=O)[C@H](CCCCN)NC(=O)[C@H](CO)NC(=O)[C@H](Cc1ccc(O)cc1)NC(=O)[C@H](CC(=O)O)NC(=O)[C@H](CO)NC(=O)[C@@H](NC(=O)[C@H](Cc1ccccc1)NC(=O)[C@@H](NC(=O)CNC(=O)[C@H](CCC(N)=O)NC(=O)C(C)(C)NC(=O)[C@@H](N)Cc1c[nH]cn1)[C@@H](C)O)[C@@H](C)O)C(=O)N[C@@H](CC(=O)O)C(=O)N[C@@H](C)C(=O)N[C@@H](CCCNC(=N)N)C(=O)N[C@@H](C)C(=O)N[C@@H](C)C(=O)N[C@@H](CCC(N)=O)C(=O)N[C@@H](CCCCNC(=O)COCCOCCNC(=O)COCCOCCNC(=O)CC[C@H](NC(=O)CCCCCCCCCCCCCCCCC(=O)O)C(=O)O)C(=O)N[C@@H](Cc1ccccc1)C(=O)N[C@H](C(=O)N[C@@H](CCC(N)=O)C(=O)N[C@@H](Cc1c[nH]c2ccccc12)C(=O)N[C@@H](CC(C)C)C(=O)N[C@@H](CCS(C)(=O)=O)C(=O)N[C@@](C)(CC(=O)O)C(=O)N[C@H](C(N)=O)[C@@H](C)O)C(C)C [TP681] (H-H[Aib]QGTFTSDYSKYLDARAAQK([AEEA-AEEA-γGlu-C18 diacid])FVQWL[Met(O2)][αMeD]T-NH2; N-terminus assumed)	0.27	1.8	< 5	< 5	–
CC(C)C[C@H](NC(=O)[C@H](CCCCN)NC(=O)[C@H](CCCCN)NC(=O)[C@H](CO)NC(=O)[C@H](Cc1ccc(O)cc1)NC(=O)[C@H](CCC(=O)O)NC(=O)[C@H](CO)NC(=O)[C@@H](NC(=O)[C@H](Cc1ccccc1)NC(=O)[C@@H](NC(=O)CNC(=O)[C@H](CCC(N)=O)NC(=O)C(C)(C)NC(=O)[C@@H](N)Cc1c[nH]cn1)[C@@H](C)O)[C@@H](C)O)C(=O)N[C@@H](CC(=O)O)C(=O)N[C@@H](C)C(=O)N[C@@H](CCCNC(=N)N)C(=O)N[C@@H](C)C(=O)N[C@@H](C)C(=O)N[C@@H](CCC(N)=O)C(=O)N[C@@H](CC(=O)O)C(=O)N[C@@H](Cc1ccccc1)C(=O)N[C@H](C(=O)N[C@@H](CCCCNC(=O)COCCOCCNC(=O)COCCOCCNC(=O)CC[C@H](NC(=O)CCCCCCCCCCCCCCCCC(=O)O)C(=O)O)C(=O)N[C@@H](Cc1c[nH]c2ccccc12)C(=O)N[C@@H](CC(C)C)C(=O)N[C@@H](CCS(C)(=O)=O)C(=O)N[C@@H](CC(=O)O)C(=O)N[C@H](C(N)=O)[C@@H](C)O)C(C)C [TP699] (H-H[Aib]QGTFTSEYSKKLDARAAQDFVK([AEEA-AEEA-γGlu-C18 diacid])WL[Met(O2)]DT-NH2)	> 19.8	–	–	–	> 19.8
CC(C)C[C@H](NC(=O)[C@H](Cc1ccc(O)cc1)NC(=O)[C@H](CCCCN)NC(=O)[C@H](CO)NC(=O)[C@H](Cc1ccc(O)cc1)NC(=O)[C@H](CC(=O)O)NC(=O)[C@H](CO)NC(=O)[C@@H](NC(=O)[C@H](Cc1ccccc1)NC(=O)[C@@H](NC(=O)CNC(=O)[C@H](CCC(N)=O)NC(=O)C(C)(C)NC(=O)[C@@H](N)Cc1c[nH]cn1)[C@@H](C)O)[C@@H](C)O)C(=O)N[C@@H](CC(=O)O)C(=O)N[C@@H](CCC(=O)O)C(=O)N[C@@H](CCCNC(=N)N)C(=O)N[C@@H](C)C(=O)N[C@@H](C)C(=O)N[C@@H](CCCCN)C(=O)N[C@@H](CC(=O)O)C(=O)N[C@@H](Cc1ccccc1)C(=O)N[C@H](C(=O)N[C@@H](CCCCNC(=O)COCCOCCNC(=O)COCCOCCNC(=O)CC[C@H](NC(=O)CCCCCCCCCCCCCCCCC(=O)O)C(=O)O)C(=O)N[C@@H](Cc1c[nH]c2ccccc12)C(=O)N[C@@H](CC(C)C)C(=O)N[C@@H](CCS(C)(=O)=O)C(=O)N[C@@H](CC(=O)O)C(=O)N[C@H](C(N)=O)[C@@H](C)O)C(C)C [TP701] (H-H[Aib]QGTFTSDYSKYLDERAAKDFVK([AEEA-AEEA-γGlu-C18 diacid])WL[Met(O2)]DT-NH2)	> 4.9	–	–	–	0.18
CC(C)C[C@H](NC(=O)[C@H](Cc1ccc(O)cc1)NC(=O)[C@H](CCCCN)NC(=O)[C@H](CO)NC(=O)[C@H](Cc1ccc(O)cc1)NC(=O)[C@H](CC(=O)O)NC(=O)[C@H](CO)NC(=O)[C@@H](NC(=O)[C@H](Cc1ccccc1)NC(=O)[C@@H](NC(=O)CNC(=O)[C@H](CCC(N)=O)NC(=O)C(C)(C)NC(=O)[C@@H](N)Cc1c[nH]cn1)[C@@H](C)O)[C@@H](C)O)C(=O)N[C@@H](CC(=O)O)C(=O)N[C@@H](C)C(=O)N[C@@H](CCCNC(=N)N)C(=O)N[C@@H](C)C(=O)N[C@@H](C)C(=O)N[C@@H](CCC(N)=O)C(=O)N[C@@H](CCC(=O)O)C(=O)N[C@@H](Cc1ccccc1)C(=O)N[C@H](C(=O)N[C@@H](CCCCNC(=O)COCCOCCNC(=O)COCCOCCNC(=O)CC[C@H](NC(=O)CCCCCCCCCCCCCCCCC(=O)O)C(=O)O)C(=O)N[C@@H](Cc1c[nH]c2ccccc12)C(=O)N[C@@H](CC(C)C)C(=O)N[C@@H](CCS(C)(=O)=O)C(=O)N[C@@H](CC(=O)O)C(=O)N[C@H](C(N)=O)[C@@H](C)O)C(C)C [TP702] (H-H[Aib]QGTFTSDYSKYLDARAAQEFVK([AEEA-AEEA-γGlu-C18 diacid])WL[Met(O2)]DT-NH2; N-terminus assumed)	0.35	1.4	< 5	< 5	–
